In patent US8710064B2, “2-aryl-4-quinazolinones and their pharmaceutical compositions” (China Medical University, priority 2011, dated 2014):

Tests used:
M21 = test: trypan blue exclusion assay, M21 cells; assay type: cell-based; details: Homo sapiens; M21 skin cancer; trypan blue exclusion assay; read-out: IC50 M21
Description: M21 cell line (human malignant melanoma) was provided by Dr. Feng-Yao Tang (China Medical University, Taiwan). Cells were grown in monolayer culture in RPMI-1640 medium, Eagle's minimum essential medium or Dulbecco's modified Eagles medium (Invitrogen Corporation, Grand Island, N.Y., USA) containing 10% fetal bovine serum (FBS; HyClone, Logan, Utah, USA), 100 U/ml penicillin and 100 μg/ml streptomycin (Gibco BRL, Rockville, Md., USA).
(§1) Cell viability was also determined by trypan-blue exclusion assay. Cells were seeded in 6-well plates (2×10^4/well) for trypan blue exclusion assay, and incubated for 24 hours at 37° C. Culture medium containing test compound or DMSO (0.006%) was added to each well, and cells were incubated at 37° C. At indicated time points (0, 24, 48, 72 and 96 hr), cells were suspended with 0.05% trypsin-EDTA, and stained with trypan-blue dye (0.4%) (Sigma). The cell viability was evaluated by the percentage of death relative to the total cell, and cell growth curve was determined by number of live cells relative to the total number of cells.
(§2) The anti-proliferation effects of Compounds 17-31 on M21, CH27, H460, Hep3B and HSC-3 cells were evaluated by the trypan blue exclusion assay.

CH27 = test: trypan blue exclusion assay, CH27 cells; assay type: cell-based; details: CH27 human lung squamous carcinoma
Description: CH27 cells (Human lung squamous carcinoma) were grown in monolayer culture in Dulbecco's modified Eagle's medium (DMEM; Life Technologies, Rockville, Md., USA) containing 5% FBS (HyClone, Logan, Utah, USA), 100 U/ml penicillin, […] streptomycin (Gibco BRL, Rockville, Md., USA) and 2 mM glutamine (Merck, Darmstadt, Germany).
as §1, §2

H460 = test: trypan blue exclusion assay, H460 cells; assay type: cell-based; details: NCI-H460, H460 human non-small cell lung cancer
Description: (§3) Hep3B (human hepatocellular carcinoma) and H460 (lung non-small carcinoma) cells were grown in monolayer culture in Dulbecco's modified Eagle's medium (DMEM) (Life Technologies, Rockville, Md., USA) containing 5% fetal bovine serum (HyClone, Logan, Utah, USA), 100 U/ml penicillin and 100 μg/ml streptomycin (Gibco BRL, Rockville, Md., USA) and 2 mM glutamine (Merck, Darmstadt, Germany).
as §1, §2

Hep3B = test: trypan blue exclusion assay, Hep3B cells; assay type: cell-based; details: Hep3B human hepatoma
Description: as §3, §1, §2

HSC-3 = test: trypan blue exclusion assay, HSC-3 cells; assay type: cell-based, human; details: for IC50: HSC-3 human squamous carcinoma, trypan blue exclusion assay
Description: The HSC-3 (human oral squamous cell carcinoma) were cultured in 1:1 Dulbecco's Modified Eagle's Medium (DMEM) and Ham's Nutrient Mixture F-12, containing 10% FBS (HyClone, Logan, Utah, USA), 100 U/ml penicillin, 100 μg/ml streptomycin (Gibco BRL, Rockville, Md., USA) and 2 mM glutamine (Merck, Darmstadt, Germany).
as §1, §2

[1] = test system: M21, CH27, H460, Hep3B and HSC-3 cells; test: trypan blue exclusion assay, cancer cell panel (summary); assay type: cell-based; details: summary of Table 2
Description: as §1, §2

C6 rat glioma = test: MTS cell viability assay, C6 glioma cells; assay type: cell-based; details: 48 hours, mean±SEM, n=3
Description: (§4) The human glioma cell lines U87, U251, T98G, U373, and rat glioma cell line RT2 provided by Dr. Michael Hsiao (Genomics Research Center, Academia Sinica, Taiwan) were cultured in Dulbecco's Modified Eagle medium (DMEM) (Caisson) supplemented with 10% fetal bovine serum (FBS) (Sigma-Aldrich), 2 mM L-glutamine (Caisson), 100 U/ml penicillin, and 100 μg/ml streptomycin (Caisson). The rat glioma C6 cell line provided by Dr. Shun-Fen Tzeng (National Cheng Kung University, Taiwan) was cultured in DMEM/F12 (Caisson) supplemented with 10% fetal bovine serum, 2 mM L-glutamine, 100 U/ml penicillin, and 100 μg/ml streptomycin. The human normal glia cell line SVGP12, kindly provided by Dr. Michael Hsiao, was cultured in Minimum Essential Medium (MEM) (Invitrogen) supplemented with 10% fetal bovine serum, 2 mM L-glutamine, 100 U/ml penicillin, and […]. Primary glia cells were prepared by surgery. Cerebral cortices without meninges were dissected from postnatal (P0-P2) Sprague-Dawley (SD, NCKU Laboratory Animal Center) rats and dissociated in 0.05% trypsin-EDTA (Biowest) at 37° C. for 10 min. Culture medium was added and pipetted for several times, and supernatant was removed after a centrifugation at 1,000 rpm for 5 minutes. […]
(§5) Cell proliferation was determined by MTS (tetrazolium compound, 3-(4,5-dimethylthiazol-2-yl)-5-(3-carboxymethoxyphenyl)-2-(4-sulfophenyl)-2H-tetrazolium) assay (Promega). […] The absorbance of soluble formazan was measured at 490 nm with microplate reader (Molecular device). The cell viability was determined by the percentage of the absorption relative to untreated control. […]
(§6) To investigate the effect of 2-aryl-4-quinazolinone in accordance with the present invention on cell proliferation, glioma cell lines were treated with MJ-66, MJ-68, or MJ-78. […] The cell viability of each group was analyzed by MTS assay (mean±SEM, n=3).

[2] = test system: U87 human glioma cell lines; test: MTS cell viability assay, U87 glioma cells; assay type: cell-based; details: 48 hours, mean±SEM, n=3
Description: as §4, §5, §6

Row | SMILES | IC50 (M21) [µM] | IC50 (CH27) [µM] | IC50 (H460) [µM] | IC50 (Hep3B) [µM] | IC50 (HSC-3) [µM] | activity on HSC-3 cells (HSC-3; summary of Table 2) | cytotoxic effects toward cancer cells [1] | melting point [°C] | IC50 (C6 rat glioma) [µM] | IC50 [2] [µM]
1 | COc1ccc2nc(-c3cccc4ccccc34)[nH]c(=O)c2c1 [Compound 17, 6-Methoxy-2-(naphthalen-1-yl) quinazolin-4-one] | 6.09 | 0.089 | 0.079 | 1.87 | > 10 | inactive | exhibited cytotoxic effects |  |  | 
2 | COc1ccc2nc(-c3c[nH]c4ccccc34)[nH]c(=O)c2c1 [Compound 18, 6-Methoxy-2-(1H-indol-3-yl) quinazolin-4-one] | > 10 | > 10 | > 10 | > 10 | > 10 |  |  | 311 to 312 |  | 
3 | COc1ccc2nc(-c3csc4ccccc34)[nH]c(=O)c2c1 [Compound 19, 6-Methoxy-2-(benzo[b]thiophen-3-yl) quinazolin-4-one] | > 10 | > 10 | > 10 | > 10 | > 10 |  |  | 289 to 290 |  | 
4 | CN(C)c1ccc2nc(-c3cccc4ccccc34)[nH]c(=O)c2c1 [Compound 20, 6-(N,N-Dimethylamino)-2-(naphthalen-1-yl) quinazolin-4-one] | 3.77 | 0.447 | 0.506 | 8.63 | 0.202 |  | exhibited cytotoxic effects |  |  | 
5 | CN(C)c1ccc2nc(-c3c[nH]c4ccccc34)[nH]c(=O)c2c1 [Compound 21, 6-(N,N-Dimethylamino)-2-(1H-indol-3-yl)quinazolin-4-one] | > 10 | > 10 | > 10 | > 10 | > 10 |  |  | > 300 |  | 
6 | CN(C)c1ccc2nc(-c3csc4ccccc34)[nH]c(=O)c2c1 [Compound 22] | > 10 | > 10 | > 10 | > 10 | > 10 |  |  | > 300 |  | 
7 | O=c1[nH]c(-c2c[nH]c3ccccc23)nc2ccc(N3CCCC3)cc12 [Compound 24, 6-(Pyrrolidin-1-yl)-2-(1H-indol-3-yl)quinazolin-4-one] | 7.63 | 8.7 | 8.81 | 7.39 | 1.89 |  | exhibited cytotoxic effects |  |  | 
8 | O=c1[nH]c(-c2csc3ccccc23)nc2ccc(N3CCCC3)cc12 [Compound 25, 6-(Pyrrolidin-1-yl)-2-(benzo[b]thiophen-3-yl)quinazolin-4-one] | > 10 | > 10 | > 10 | > 10 | > 10 |  |  | > 300 | > 1 | > 1
9 | O=c1[nH]c(-c2cccc3ccccc23)nc2ccc(N3CCCCC3)cc12 [Compound 26, 6-(Piperidin-1-yl)-2-(naphthalen-1-yl)quinazolin-4-one] | 1.59 | 0.362 | 0.376 | 7.24 | 1.73 |  | exhibited cytotoxic effects |  | 0.47 ± 0.16 | 0.54 ± 0.24
10 | O=c1[nH]c(-c2c[nH]c3ccccc23)nc2ccc(N3CCCCC3)cc12 [Compound 27, 6-(Piperidin-1-yl)-2-(1H-indol-3-yl)quinazolin-4-one] | 8.99 | > 10 | 6.86 | 5.65 | > 10 |  | exhibited cytotoxic effects |  |  | 
11 | O=c1[nH]c(-c2csc3ccccc23)nc2ccc(N3CCCCC3)cc12 [Compound 28] | > 10 | > 10 | > 10 | > 10 | > 10 |  |  | > 300 |  | 
12 | O=c1[nH]c(-c2cccc3ccccc23)nc2ccc(N3CCOCC3)cc12 [Compound 29, 6-(Morpholino)-2-(naphthalen-1-yl)quinazolin-4-one] | 2.33 | 0.597 | 0.432 | 1.06 | 0.614 |  | exhibited cytotoxic effects |  |  | 
13 | O=c1[nH]c(-c2c[nH]c3ccccc23)nc2ccc(N3CCOCC3)cc12 [Compound 30, 6-(Morpholino)-2-(1H-indol-3-yl)quinazolin-4-one] | > 10 | > 10 | > 10 | > 10 | > 10 |  |  | > 300 |  | 
14 | O=c1[nH]c(-c2csc3ccccc23)nc2ccc(N3CCOCC3)cc12 [Compound 31, 6-(Morpholino)-2-(benzo[b]thiophen-3-yl) quinazolin-4-one] | > 10 | > 10 | > 10 | > 10 | > 10 |  |  | > 300 |  | 
